Experimental data: ChEMBL document CHEMBL1201862, “PubChem BioAssay data set” (2004)
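Five concentrations, 48 hours, 96-well plates. GI50: concentration for 50% inhibition of growth.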 Activity calls are given as the source filed them. Cut-off read from the data, not from the text of the source: active = GI50 up to about 1.1 µM and inactive = higher.

How the values were obtained:
Test in all cases: inhibition of tumour cell growth, NCI panel, 48 h
HCC 2998 = test system: HCC 2998
EKVX = test system: EKVX
NCI-H226 = test system: NCI-H226
KM12 = test system: KM12
786-0 = test system: 786-0
Malme-3M = test system: Malme-3M
UACC-62 = test system: UACC-62
RPMI-8226 = test system: RPMI-8226
OVCAR-8 = test system: OVCAR-8
SF-268 = test system: SF-268
SF-295 = test system: SF-295
SK-OV-3 = test system: SK-OV-3
SN12C = test system: SN12C
NCI-H23 = test system: NCI-H23
UACC-257 = test system: UACC-257
M14 = test system: M14
SR = test system: SR
SNB-75 = test system: SNB-75
DU-145 = test system: DU-145
HL-60 = test system: HL-60
TK-10 = test system: TK-10
K562 = test system: K562
T47D = test system: T47D
IGROV-1 = test system: IGROV-1
COLO 205 = test system: COLO 205
LOX IMVI = test system: LOX IMVI
SK-MEL-28 = test system: SK-MEL-28
MCF7 = test system: MCF7
HOP-62 = test system: HOP-62
PC-3 = test system: PC-3
CAKI-1 = test system: CAKI-1
MDA-MB-231 = test system: MDA-MB-231
MOLT-4 = test system: MOLT-4
A549 = test system: A549
HT-29 = test system: HT-29
HCT-15 = test system: HCT-15
RXF 393 = test system: RXF 393
CCRF-CEM = test system: CCRF-CEM
SK-MEL-5 = test system: SK-MEL-5
MDA-N = test system: MDA-N
SW-620 = test system: SW-620
UO-31 = test system: UO-31
NCI/ADR-RES = test system: NCI/ADR-RES
OVCAR-3 = test system: OVCAR-3
NCI-H522 = test system: NCI-H522
NCI-H460 = test system: NCI-H460
OVCAR-4 = test system: OVCAR-4
HCT-116 = test system: HCT-116
SF-539 = test system: SF-539
ACHN = test system: ACHN
U-251 = test system: U-251
MDA-MB-435 = test system: MDA-MB-435
Hs-578T = test system: Hs-578T
SK-MEL-2 = test system: SK-MEL-2

With CC(C)=CCC1=C(O)C(=O)c2ccccc2C1=O the GI50 (HCC 2998) was > 100 µM (inactive), the GI50 (EKVX) was > 100 µM (inactive) and the GI50 (NCI-H226) was > 100 µM (inactive).
CCCCCCCCCC[C@@H](OC(C)=O)[C@@H]1CC[C@@H]([C@@H]2CC[C@@H]([C@@H](O)CC#C/C=C/CCCCCCC[C@@]3(Sc4ccccc4)C[C@H](C)OC3=O)O2)O1 was tested, and the GI50 (KM12) was > 10 µM (inactive), the GI50 (786-0) was > 10 µM (inactive) and the GI50 (Malme-3M) was > 10 µM (inactive). The GI50 (UACC-62) was > 10 µM (inactive), the GI50 (RPMI-8226) was > 10 µM (inactive) and the GI50 (OVCAR-8) was > 10 µM (inactive). For the same compound, the GI50 (HCC 2998) was > 10 µM (inactive), the GI50 (SF-268) was > 10 µM (inactive) and the GI50 (SF-295) was > 10 µM (inactive). The GI50 (EKVX) was > 10 µM (inactive), the GI50 (SK-OV-3) was > 10 µM (inactive) and the GI50 (SN12C) was > 10 µM (inactive). For the same compound, the GI50 (NCI-H23) was 0.968 µM (active), the GI50 (UACC-257) was 3.08 µM (inactive) and the GI50 (M14) was > 10 µM (inactive). The GI50 (SR) was > 10 µM (inactive), the GI50 (SNB-75) was > 10 µM (inactive) and the GI50 (DU-145) was > 10 µM (inactive). For the same compound, the GI50 (HL-60) was > 10 µM (inactive), the GI50 (TK-10) was > 10 µM (inactive) and the GI50 (K562) was 9.89 µM (inactive). The GI50 (T47D) was 7.46 µM (inactive), the GI50 (IGROV-1) was > 10 µM (inactive) and the GI50 (COLO 205) was > 10 µM (inactive). For the same compound, the GI50 (LOX IMVI) was > 10 µM (inactive), the GI50 (SK-MEL-28) was > 10 µM (inactive) and the GI50 (MCF7) was > 10 µM (inactive). For the same compound, the GI50 (HOP-62) was > 10 µM (inactive), the GI50 (PC-3) was > 10 µM (inactive) and the GI50 (CAKI-1) was > 10 µM (inactive). For the same compound, the GI50 (MDA-MB-231) was > 10 µM (inactive), the GI50 (MOLT-4) was > 10 µM (inactive) and the GI50 (A549) was > 10 µM (inactive). The GI50 (HT-29) was > 10 µM (inactive), the GI50 (HCT-15) was over 10 µM and the GI50 (RXF 393) was > 10 µM (inactive). The GI50 (CCRF-CEM) was > 10 µM (inactive), the GI50 (SK-MEL-5) was 4.57 µM (inactive) and the GI50 (MDA-N) was > 10 µM (inactive). For the same compound, the GI50 (SW-620) was > 10 µM (inactive).
For CC1(C)N=C(N)N=C(N)N1c1ccc(CCCCCCc2ccc(S(=O)(=O)F)cc2)cc1, the GI50 (KM12) was 0.276 µM (active), the GI50 (786-0) was < 0.01 µM (active) and the GI50 (UACC-62) was < 0.01 µM (active). The GI50 (HCC 2998) was 2.23 µM (inactive), the GI50 (SF-295) was 0.114 µM (active) and the GI50 (SK-OV-3) was 8.53 µM (inactive). For the same compound, the GI50 (SN12C) was 0.028 µM (active), the GI50 (NCI-H23) was 0.0617 µM (active) and the GI50 (M14) was 1.24 µM (inactive). The GI50 (SR) was < 0.01 µM (active), the GI50 (SNB-75) was 3.36 µM (inactive) and the GI50 (UO-31) was 14.1 µM (inactive). For the same compound, the GI50 (DU-145) was 0.421 µM (active), the GI50 (NCI/ADR-RES) was 22.9 µM (inactive) and the GI50 (HL-60) was 0.132 µM (active). For the same compound, the GI50 (TK-10) was 1.02 µM (active), the GI50 (OVCAR-3) was 0.247 µM (active) and the GI50 (K562) was < 0.0105 µM (active). For the same compound, the GI50 (NCI-H522) was 1.55 µM (inactive), the GI50 (T47D) was 8 µM (inactive) and the GI50 (NCI-H460) was < 0.0229 µM (active). For the same compound, the GI50 (OVCAR-4) was 31.8 µM (inactive), the GI50 (IGROV-1) was < 0.0395 µM (active) and the GI50 (COLO 205) was 0.144 µM (active). For the same compound, the GI50 (HCT-116) was 0.017 µM (active), the GI50 (SK-MEL-28) was 3.88 µM (inactive) and the GI50 (MCF7) was 0.0828 µM (active). The GI50 (HOP-62) was 1.19 µM (inactive), the GI50 (CAKI-1) was 12.3 µM (inactive) and the GI50 (A549) was < 0.0376 µM (active). For the same compound, the GI50 (HT-29) was < 0.0468 µM (active), the GI50 (HCT-15) was 0.857 µM and the GI50 (SF-539) was < 0.0189 µM (active). For the same compound, the GI50 (CCRF-CEM) was < 0.01 µM (active), the GI50 (ACHN) was 0.274 µM (active) and the GI50 (U-251) was < 0.0352 µM (active). For the same compound, the GI50 (MDA-MB-435) was 0.0557 µM (active), the GI50 (Hs-578T) was 2.18 µM (inactive) and the GI50 (SW-620) was < 0.0211 µM (active). For the same compound, the GI50 (SK-MEL-2) was 3.72 µM (inactive).
